The subject of one series is Hsp90. The settings on record: literature value; cited from earlier work.
The target of series [1] is T1, PDK4 (Homo sapiens, UniProt Q16654). The settings on record: literature value; cited from earlier work.
Target sequence in this assay (Q16654 whole entry, species assumed, the tested form may be a part): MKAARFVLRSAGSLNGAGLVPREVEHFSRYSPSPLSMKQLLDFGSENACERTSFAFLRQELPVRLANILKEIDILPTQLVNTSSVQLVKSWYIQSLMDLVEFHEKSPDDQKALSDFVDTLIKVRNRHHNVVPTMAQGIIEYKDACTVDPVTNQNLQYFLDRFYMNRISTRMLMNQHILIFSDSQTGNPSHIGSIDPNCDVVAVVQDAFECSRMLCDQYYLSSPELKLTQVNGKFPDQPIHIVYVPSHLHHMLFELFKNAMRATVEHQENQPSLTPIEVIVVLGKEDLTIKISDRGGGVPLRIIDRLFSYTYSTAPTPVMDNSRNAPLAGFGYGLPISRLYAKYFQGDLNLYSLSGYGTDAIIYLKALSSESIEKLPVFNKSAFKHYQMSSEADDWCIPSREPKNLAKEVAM
For series [2], the target named is T1, PDK4. Briefly: Assay for inhibition of PDK activity, PDK4. The class given is biochemical. The arrangement: made in house. Here is the method: (§1) Recombinant human PDK2 was expressed and purified as a N terminal His6-tagged SUMO fusion protein with a tobacco-etch-virus protease (TEV) cleavage site in front of the N-terminal PDK2 sequence (26), and was used directly for the activity assay and binding affinity analyses. […] The purified protein was concentrated to 35-40 mg/ml and stored at −80° C. in small aliquots. Recombinant human PDK1, PDK3 and PDK4 were expressed and purified as described previously (26).
(§2) The remaining steps were described previously (26). IC50 values were obtained by the curve fitting of inhibition isotherms using Prism 6 (GraphPad software, Inc.).
Target sequence in this assay (Q16654 whole entry, the tested form may be a part): as the sequence (Q16654 whole entry, species assumed, the tested form may be a part) above

Series [3] has as its target T2, PDK2 (Homo sapiens, UniProt Q15119). Briefly: Isothermal titration calorimetry (ITC), binding to PDK2. The arrangement: made in house. Here is the method:
as §1
(§3) The PDK2 or Hsp90 N-terminal domain protein was dialyzed against one liter of the dialysis buffer containing 50 mM Tris-Cl, pH 7.5, 50 mM KCl, 1 mM MgCl2, and 0.5 mM β-mercaptoethanol. […] All of the ITC data were initially analyzed by the NITPIC program (32) to construct the baseline, followed by curve-fitting in Origin 7 to obtain binding parameters.

The target of series [4] is T2, PDK2. Briefly: Assay for inhibition of PDK activity, PDK2. In kind it is biochemical. The arrangement: made in house. Here is the method:
as §1, §2

For series [5], the target named is T3, N-terminal domain of human Hsp90 (Homo sapiens, UniProt P07900).
T3 construct: the N-terminal domain (residue 1-236) of human Hsp90; His6 (N); SUMO (N); made in house; host or cells: E. coli BL21
Nature of the series: Isothermal titration calorimetry (ITC), binding to Hsp90 N-terminal domain. The settings on record: read-out: Kd, nM for Hsp 90. Here is the method: The sequence encoding the N-terminal domain was amplified and cloned into the pSUMO expression vector (Lifesensors, Malvern, Pa.). The fusion protein of His6-tagged SUMO-Hsp90 N-terminal domain was expressed in E. coli BL21 cells and purified with Ni-NTA resin (Qiagen) and on Superdex-200 column in 20 mM Tris.HCl, pH 7.5 and 500 mM NaCl.
as §3
(In general: In ITC the heat of successive injections is recorded.)

A short description of series [6]: Pharmacokinetic studies in mice after IP dosing. The class given is in vivo. The settings on record: 20 mg/kg IP, female CD-1 mice, plasma. Here is the method:
Twenty-one male C57BL/6J mice were dosed IP with 70 mg/kg PS-10, 0.2 ml/mouse formulated as 10% DMSO/20% water/70% of 25% (2-hydroxypropyl)-β-cyclodextrin for determination of PS-10 PK. Twenty-one female CD-1 mice were dosed IP with 20 mg/kg PS-8, 0.2 ml/mouse formulated as 5% ethanol and 95% of 0.1 M sodium bicarbonate pH 9.0 for determination of PS-8 PK. Animal (n=3) were sacrificed and whole blood was harvested for each time point. Plasma was processed from whole blood by centrifugation of the ACD treated blood for 10′ at 10,000 rpm in a standard centrifuge. The analytical processing of blood samples and pharmacokinetics studies using LC/MS/MS were as described previously with LC/MS/MS methods optimized for detection of PS-10 and PS-8 (33).

The target of another series is T4, human PDK1 (Homo sapiens, UniProt Q15118).
T4 construct: made in house
Nature of the series: Assay for inhibition of PDK activity, PDK1. In kind it is biochemical. Here is the method:
(§4) Recombinant human PDK2 was expressed and purified as a N terminal His6-tagged SUMO fusion protein with a tobacco-etch-virus protease (TEV) cleavage site in front of the N-terminal PDK2 sequence (26), and was used directly for the activity assay and binding affinity analyses. For crystallization, the protein was subjected to a TEV-protease digestion, and the untagged PDK2 protein was purified on a Superdex 200 column in 20 mM Tris-HCl (pH 8.0), 150 mM NaCl and 5 mM DTT. The purified protein was concentrated to 35-40 mg/ml and stored at −80° C. in small aliquots. Recombinant human PDK1, PDK3 and PDK4 were expressed and purified as described previously (26).
(§5) . The remaining steps were described previously (26). IC50 values were obtained by the curve fitting of inhibition isotherms using Prism 6 (GraphPad software, Inc.).

The target of series [7] is T2, PDK2. Nature of the series: biochemical. Here is the method:
The kinase-profiling of PS8 on 21 human protein kinases were performed at Reaction Biology Corp. (Malvern, Pa.). […] Each protein kinase was also tested against its known inhibitor as a positive control.
The selectivity of PS8 was studied by determining IC50 for the inhibition of a 21-kinase panel including PDK2. […] Except PDK4, PDK isoforms anchor to the E2/E3BP of PDC for optimal kinase activity in vivo.

For series [8], the target named is T5, PDK3 (Homo sapiens, UniProt Q15120). Nature of the series: Assay for inhibition of PDK activity, PDK3. Further details: made in house. In kind it is biochemical. Here is the method: as §4, §5
Target sequence in this assay (Q15120 whole entry): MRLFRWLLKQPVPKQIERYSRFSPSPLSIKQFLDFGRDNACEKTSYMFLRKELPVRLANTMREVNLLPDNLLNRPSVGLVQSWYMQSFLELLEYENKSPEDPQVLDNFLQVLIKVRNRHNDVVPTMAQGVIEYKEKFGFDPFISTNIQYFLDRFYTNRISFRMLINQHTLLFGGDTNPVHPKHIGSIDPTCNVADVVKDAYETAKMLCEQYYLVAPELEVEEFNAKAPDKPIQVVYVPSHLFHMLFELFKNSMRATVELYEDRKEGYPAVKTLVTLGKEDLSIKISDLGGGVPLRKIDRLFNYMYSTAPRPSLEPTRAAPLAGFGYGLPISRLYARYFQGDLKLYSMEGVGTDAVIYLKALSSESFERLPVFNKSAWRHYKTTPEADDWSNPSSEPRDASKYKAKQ
A short description of series [9]: Half-life in vitro in hepatic S9 fractions. In kind it is in vitro ADME. Conditions: data not shown.
Series [10] concerns the target T5, PDK3. Conditions: literature value; read-out: IC50 (ATP-competitive inhibitor, PDK3); cited from earlier work.
Target sequence in this assay (Q15120 whole entry, species assumed): as the sequence (Q15120 whole entry) above
A further series has as its system PDK. The settings on record: literature value; read-out: IC50 (known PDK inhibitor); cited from earlier work.
Setting [11] is: Table 1, inhibitor 31.6 nM to 1 mM, read-out: IC50, μM for PDK4.
Setting [12] is: Table 1, inhibitor 31.6 nM to 1 mM, read-out: IC50, μM for PDK2.

Data on 13 compounds can be found in patent US10167258B2, “Inhibitors of mitochondrial pyruvate dehydrogenase kinase isoforms 1-4 and uses thereof” (The Board of Regents of the University of Texas System, priority 2013, dated 2019).

Where two headings read alike, the source gives them in different places.

By IC50 is commonly meant the concentration that gives 50% inhibition. Broadly, the Kd is the constant that tells how readily two partners part at equilibrium. One may read the CL/F as clearance divided by bioavailability, as obtained after extravascular dosing. The term AUC(0-t) denotes the area under the concentration-time curve up to a stated or last time point. Low readings indicate low exposure, high ones high exposure. As a reminder, the Cmax is the maximum level reached in the sampled fluid or tissue. As a reminder, the Tmax is the time from dosing to the highest level.

T4 sequence (Q15118 29-436): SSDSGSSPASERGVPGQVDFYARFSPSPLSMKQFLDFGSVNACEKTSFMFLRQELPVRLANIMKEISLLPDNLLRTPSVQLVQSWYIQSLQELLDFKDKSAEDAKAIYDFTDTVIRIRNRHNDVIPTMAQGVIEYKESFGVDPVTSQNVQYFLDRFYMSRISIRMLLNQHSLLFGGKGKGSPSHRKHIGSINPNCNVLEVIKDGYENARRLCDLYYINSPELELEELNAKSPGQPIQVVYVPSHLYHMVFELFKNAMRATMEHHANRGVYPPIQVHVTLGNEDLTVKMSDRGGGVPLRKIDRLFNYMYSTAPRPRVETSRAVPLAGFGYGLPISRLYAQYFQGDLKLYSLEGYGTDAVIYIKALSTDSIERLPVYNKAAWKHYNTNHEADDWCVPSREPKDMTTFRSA

On to `COc1ccc(-c2c(-c3ccc(O)cc3O)n[nH]c2C)cc1` [Compound M77976], for which the IC50 is 4400 nM in the series with Hsp90 and 648000 nM on PDK4 [1].

With `O=C(c1cc(Br)c(O)cc1O)N1Cc2ccccc2C1` [PA1, (5-bromo-2,4-dihydroxyphenyl)(isoindolin-2-yl)methanone], the half-maximal inhibitory concentration (IC50) at PDK4 [2] (setting [11]) is 1.86 µM; at PDK2 [4] (setting [12]) it was 6.78 µM. At PDK2 [3] (ITC, read-out: Kd, nM for PDK2), the Kd was 3570 nM.

For `O=C(c1ccc(O)cc1O)N1Cc2ccccc2C1` [PA7, (2,4-dihydroxyphenyl)(isoindolin-2-yl)methanone], the IC50 at PDK4 [2] (setting [11]) amounted to 1.05 µM; on PDK2 [4] (setting [12]), 5.68 µM. Moreover, the Kd at PDK2 [3] (ITC, read-out: Kd, nM for PDK2) was 1830 nM.

With `O=S(=O)(c1ccc(O)cc1O)N1Cc2ccccc2C1` [PS2, 4-(isoindolin-2-ylsulfonyl)benzene-1,3-diol], the half-maximal inhibitory concentration (IC50) at PDK4 [2] (setting [11]) amounted to 2.2 µM; at PDK2 [4] (setting [12]), 2.11 µM. Moreover, the Kd in series [5] was 50900 nM; on PDK2 [3] (ITC, read-out: Kd, nM for PDK2) it was 711 nM. The “shift in binding affinities in favor of PDK2 (carbonyl in PA7 to sulfonyl in PS2)” value on PDK2 [3] (from Kd values for PDK2 and Hsp90) was 4,791 fold.

On to `O=S(=O)(c1ccc(O)cc1O)N1Cc2ccc(O)cc2C1` [PS8, 4-((5-hydroxyisoindolin-2-yl)sulfonyl)benzene-1,3-diol], for which, in [6], the CL/F stood at 1.55 mL/min. The compound further showed an area under the curve AUC(0-t) in series [6] (mouse) of 5170 ng·h/mL. Further, the highest level in series [6] (mouse) (Cmax) was 7600 ng/mL. In series [6] (mouse), the Tmax is 0.167 h. The half-life was 1.55 h in series [6] (mouse, read-out: Terminal T1/2) and more than 4 h in series [9]. In addition, the Vd/F in series [6] (mouse, read-out: Vz/F) came out at 0.209 L. Moreover, the half-maximal inhibitory concentration (IC50) at PDK4 [2] (setting [11]) was 1.1 µM; on PDK4 [2] (presence of E2/E3BP core (+), read-out: IC50 for PDK4) it was 0.84 ± 0.08 µM; at human PDK1 (absence of E2/E3BP core (−)), 2500 ± 140 nM; on human PDK1 (presence of E2/E3BP core (+)), 2140 ± 330 nM; against PDK2 [7] it was 70 nM; against PDK3 [8] (absence of E2/E3BP core (−)), 13700 ± 2080 nM. The IC50 at PDK3 [8] (presence of E2/E3BP core (+)) stood at 2550 ± 380 nM; at PDK2 [4] (setting [12]) it was 1.07 µM; on PDK2 [4] (presence of E2/E3BP core (+), read-out: IC50 for PDK2), 0.71 ± 0.14 µM. For the same compound, the Kd in series [5] was found to be 60100 nM; at PDK2 [3] (ITC, read-out: Kd, nM for PDK2) it was 426 nM. Also, the “IC50 of all other kinases on the panel relative to PDK2” value at PDK2 [7] (21-kinase panel, next lowest CDK1/cyclin B) is “at least 3 orders of magnitude”.

`O=S(=O)(c1ccc(O)cc1O)N1Cc2ccc(NC3CCNCC3)cc2C1` [PS35] came in with a dissociation constant Kd on PDK2 [3] of 143 nM. This compound came in with a concentration for half-maximal inhibition (IC50) against PDK2 [4] of 0.61 µM.

Compound `O=S(=O)(c1ccc(O)cc1O)N1Cc2ccc(NC3CCN(CC(O)CO)CC3)cc2C1` (stereo not shown) [PS38] displayed a Kd on PDK2 [3] of 188 nM.

On to `O=C(C1C[C@@H](O)C(O)[C@H](O)C1)N1CCC(Nc2ccc3c(c2)CN(S(=O)(=O)c2ccc(O)cc2O)C3)CC1` (stereo partly shown) [PS39], for which the dissociation constant (Kd) at PDK2 [3] worked out at 338 nM.

Take `O=C(C1=C[C@@H](O)[C@@H](O)[C@H](O)C1)N1CCC(Nc2ccc3c(c2)CN(S(=O)(=O)c2ccc(O)cc2O)C3)CC1` [PS40]: the Kd at PDK2 [3] turned out to be 403 nM.

For the compound `O=C(O)CCCCN1CCC(Nc2ccc3c(c2)CN(S(=O)(=O)c2ccc(O)cc2O)C3)CC1` [PS41], the dissociation constant Kd on PDK2 [3] was found to be 1400 nM.

On PDK2 [3], `O=C(O)CCCN1CCC(Nc2ccc3c(c2)CN(S(=O)(=O)c2ccc(O)cc2O)C3)CC1` [PS42] yielded a Kd of 917 nM.

As to `C[C@@H]1C[C@H]2O[C@@H]2/C=C\C=C\C(=O)Cc2c(Cl)c(O)cc(O)c2C(=O)O1` [Radicicol, radicicol, reference compound], the half-maximal inhibitory concentration (IC50) on PDK3 [10] is 230000 to 400000 nM; on PDK2 [4] (setting [12]), 77.8 µM. Also, the Kd at PDK2 [3] (ITC, read-out: Kd, nM for PDK2) came to 18600 nM.

For the compound `C[C@@H]1CN(C(=O)[C@@](C)(O)C(F)(F)F)[C@@H](C)CN1C(=O)c1ccc(C#N)cc1` [compound 3, (+)-1-N-[2,5-(S,R)-dimethyl-4-N-(4-cyanobenzoyl)piperazine]-(R)-3,3,3-trifluoro-2-hydroxy-2-methylpropan-amide], the concentration for half-maximal inhibition (IC50) with PDK is 16 nM.
